Data taken from patent publication US20240270741A1 (Cogent Biosciences, Inc., priority 2023, published 2024).

Biological target: FGFR2 (Homo sapiens, UniProt P21802)
Test: FGFR wild type enzyme assay (HTRF KinEASE-TK), FGFR2
Conditions: Enz FGFR2 (nM), FGFR2 wild type enzyme

Sequence of FGFR2 (P21802 399-821 limits assumed): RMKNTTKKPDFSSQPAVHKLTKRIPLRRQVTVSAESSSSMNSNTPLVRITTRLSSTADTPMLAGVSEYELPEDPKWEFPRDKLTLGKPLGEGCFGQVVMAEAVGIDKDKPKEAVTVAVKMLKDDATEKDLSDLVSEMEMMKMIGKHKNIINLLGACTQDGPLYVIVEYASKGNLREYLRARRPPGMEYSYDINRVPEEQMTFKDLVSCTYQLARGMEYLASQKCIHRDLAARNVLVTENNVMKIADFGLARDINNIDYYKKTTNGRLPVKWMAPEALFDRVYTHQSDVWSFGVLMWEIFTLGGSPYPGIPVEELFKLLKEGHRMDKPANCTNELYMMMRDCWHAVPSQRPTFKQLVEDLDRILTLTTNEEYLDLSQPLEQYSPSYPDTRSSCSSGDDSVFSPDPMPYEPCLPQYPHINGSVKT

SMILES	IC50 [nM]
CC(=O)N1CCC([C@@H](C)n2ncc(-c3cc(Sc4ncccc4F)c4c(C#N)cnn4c3)c2C)CC1 [Example 174, (R)-6-(1-(1-(1-acetylpiperidin-4-yl)ethyl)-5-methyl-1H-pyrazol-4-yl)-4-((3-fluoropyridin-2-yl)thio)pyrazolo[1,5-a]pyridine-3-carbonitrile]	4
Cc1c(-c2cc(Sc3ncccc3F)c3c(C#N)cnn3c2)cnn1[C@H]1CC[C@@H](NS(C)(=O)=O)CC1 [Example 177, N-((1s,4s)-4-(4-(3-cyano-4-((3-fluoropyridin-2-yl)thio)pyrazolo[1,5-a]pyridin-6-yl)-5-methyl-1H-pyrazol-1-yl)cyclohexyl)methane-sulfonamide]	1
Cc1c(-c2cc(Sc3ncccc3F)c3c(C#N)cnn3c2)cnn1[C@@H](C)CN(C)C [Example 179, (S)-6-(1-(1-(dimethylamino)propan-2-yl)-5-methyl-1H-pyrazol-4-yl)-4-((3-fluoropyridin-2-yl)thio)pyrazolo[1,5-a]pyridine-3-carbonitrile]	3
Cc1c(-c2cc(Sc3ncccc3F)c3c(C#N)cnn3c2)cnn1C[C@@H](C)N(C)C [Example 181, (R)-6-(1-(2-(dimethylamino)propyl)-5-methyl-1H-pyrazol-4-yl)-4-((3-fluoropyridin-2-yl)thio)pyrazolo[1,5-a]pyridine-3-carbonitrile]	7
Cc1c(-c2cc(Sc3ccccc3C#N)c3c(C#N)cnn3c2)cnn1[C@H]1CC[C@@H](O)CC1 [Example 188, 4-((2-cyanophenyl)thio)-6-(1-((1s,4s)-4-hydroxycyclohexyl)-5-methyl-1H-pyrazol-4-yl)pyrazolo[1,5-a]pyridine-3-carbonitrile]	0.5
Cc1c(-c2cc(Sc3ccccc3C#N)c3c(C#N)cnn3c2)cnn1[C@H]1CC[C@H](O)CC1 [Example 189, 4-((2-cyanophenyl)thio)-6-(1-((1r,4r)-4-hydroxycyclohexyl)-5-methyl-1H-pyrazol-4-yl)pyrazolo[1,5-a]pyridine-3-carbonitrile]	0.7
CC(=O)N1CCC[C@H](n2ncc(-c3cc(Sc4ncc(F)cc4F)c4c(C#N)cnn4c3)c2C)C1 [Example 190, (S)-6-(1-(1-acetylpiperidin-3-yl)-5-methyl-1H-pyrazol-4-yl)-4-((3,5-difluoropyridin-2-yl)thio)pyrazolo[1,5-a]pyridine-3-carbonitrile]	3
Cc1c(-c2cc(Sc3ncc(F)cc3F)c3c(C#N)cnn3c2)cnn1C1CCN(C(=O)CO)CC1 [Example 191, 4-((3,5-difluoropyridin-2-yl)thio)-6-(1-(1-(2-hydroxyacetyl)piperidin-4-yl)-5-methyl-1H-pyrazol-4-yl)pyrazolo[1,5-a]pyridine-3-carbonitrile]	4
Cc1c(-c2cc(Sc3ncccc3F)c3c(C#N)cnn3c2)cnn1C1CCN(C(=O)[C@@H](C)O)CC1 [Example 193, (R)-4-((3-fluoropyridin-2-yl)thio)-6-(1-(1-(2-hydroxypropanoyl)piperidin-4-yl)-5-methyl-1H-pyrazol-4-yl)pyrazolo[1,5-a]pyridine-3-carbonitrile]	2

Further lines, results first:

IC50 [nM]	SMILES
1	Cc1c(-c2cc(Sc3ncccc3F)c3c(C#N)cnn3c2)cnn1C1CCC(N(C)C(=O)CN(C)C)CC1 (stereo not shown) [Example 173, N-(4-(4-(3-cyano-4-((3-fluoropyridin-2-yl)thio)pyrazolo[1,5-a]pyridin-6-yl)-5-methyl-1H-pyrazol-1-yl)cyclohexyl)-2-(dimethylamino)-N-methylacetamide]
1	Cc1c(-c2cc(Sc3ncccc3F)c3c(C#N)cnn3c2)cnn1[C@H]1CC[C@@]2(CCNC2)CC1 [Example 175, 4-((3-fluoropyridin-2-yl)thio)-6-(5-methyl-1-((5r,8r)-2-azaspiro[4.5]decan-8-yl)-1H-pyrazol-4-yl)pyrazolo[1,5-a]pyridine-3-carbonitrile]
1.5	CC(=O)N1CCC2(CC1)CC(n1ncc(-c3cc(Sc4ncccc4F)c4c(C#N)cnn4c3)c1C)C2 [Example 176, 6-(1-(7-acetyl-7-azaspiro[3.5]nonan-2-yl)-5-methyl-1H-pyrazol-4-yl)-4-((3-fluoropyridin-2-yl)thio)pyrazolo[1,5-a]pyridine-3-carbonitrile]
1	Cc1c(-c2cc(Sc3ncccc3F)c3c(C#N)cnn3c2)cnn1C1CCNC(C)(C)C1 (stereo not shown) [Example 178]
15	Cc1c(-c2cc(Sc3ncccc3F)c3c(C#N)cnn3c2)cnn1[C@H](C)CN(C)C [Example 180, (R)-6-(1-(1-(dimethylamino)propan-2-yl)-5-methyl-1H-pyrazol-4-yl)-4-((3-fluoropyridin-2-yl)thio)pyrazolo[1,5-a]pyridine-3-carbonitrile]
8	Cc1c(-c2cc(Sc3ncccc3F)c3c(C#N)cnn3c2)cnn1C[C@H](C)N(C)C [Example 182, (S)-6-(1-(2-(dimethylamino)propyl)-5-methyl-1H-pyrazol-4-yl)-4-((3-fluoropyridin-2-yl)thio)pyrazolo[1,5-a]pyridine-3-carbonitrile]
8	N#Cc1cnn2cc(-c3cnn4c3CNCC4)cc(Sc3ncccc3F)c12 [Example 183, 4-((3-fluoropyridin-2-yl)thio)-6-(4,5,6,7-tetrahydropyrazolo[1,5-a]pyrazin-3-yl)pyrazolo[1,5-a]pyridine-3-carbonitrile]
1.6	Cc1c(-c2cc(Sc3ncccc3F)c3c(C#N)cnn3c2)cnn1[C@H]1CC[C@@H](O)CC1 [Example 184, 4-((3-fluoropyridin-2-yl)thio)-6-(1-((1s,4s)-4-hydroxycyclohexyl)-5-methyl-1H-pyrazol-4-yl)pyrazolo[1,5-a]pyridine-3-carbonitrile]
1	Cc1c(-c2cc(Sc3ncccc3F)c3c(C#N)cnn3c2)cnn1[C@H]1CC[C@H](O)CC1 [Example 185, 4-((3-fluoropyridin-2-yl)thio)-6-(1-((1r,4r)-4-hydroxycyclohexyl)-5-methyl-1H-pyrazol-4-yl)pyrazolo[1,5-a]pyridine-3-carbonitrile]
3	Cc1c(-c2cc(Sc3ncccc3F)c3c(C#N)cnn3c2)cnn1[C@H]1CC[C@@H](N)CC1 [Example 186, 6-(1-((1s,4s)-4-aminocyclohexyl)-5-methyl-1H-pyrazol-4-yl)-4-((3-fluoropyridin-2-yl)thio)pyrazolo[1,5-a]pyridine-3-carbonitrile]
1	Cc1c(-c2cc(Sc3ncccc3F)c3c(C#N)cnn3c2)cnn1[C@H]1CC[C@H](N)CC1 [Example 187, 6-(1-((1r,4r)-4-aminocyclohexyl)-5-methyl-1H-pyrazol-4-yl)-4-((3-fluoropyridin-2-yl)thio)pyrazolo[1,5-a]pyridine-3-carbonitrile]
2	N#Cc1cnn2cc(-c3cnn([C@@H]4CCCNC4)c3)cc(Sc3ncccc3F)c12 [Example 192, (R)-4-((3-fluoropyridin-2-yl)thio)-6-(1-(piperidin-3-yl)-1H-pyrazol-4-yl)pyrazolo[1,5-a]pyridine-3-carbonitrile]
2	Cc1c(-c2cc(Sc3ncccc3F)c3c(C#N)cnn3c2)cnn1C1CCN(C(=O)[C@H](C)O)CC1 [Example 194, (S)-4-((3-fluoropyridin-2-yl)thio)-6-(1-(1-(2-hydroxypropanoyl)piperidin-4-yl)-5-methyl-1H-pyrazol-4-yl)pyrazolo[1,5-a]pyridine-3-carbonitirle]
